Like-named read-outs stand apart in the source and are kept apart here.
Legend:
A2780 = test: In vitro cell growth inhibition assay (MTT); format: cell-based, human; conditions: read-out: IC50 A2780
In short: (§1)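 Following overnight adherence of 5000 cells per well, compounds or 0.2% DMSO were applied for 48 h. Medium was then swapped for 0.5 mg/mL MTT medium (4 h, 37° C), crystals dissolved in DMSO, and plates read at 540 nm.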

Hela = test: In vitro cell growth inhibition assay (MTT); format: cell-based, human; conditions: 48 h, read-out: IC50 Hela
In short: as §1

MDA-MB-231 = test: In vitro cell growth inhibition assay (MTT); format: cell-based, human; conditions: read-out: IC50 MDA-MB-231
In short: as §1

SKOV3 = test: In vitro cell growth inhibition assay (MTT); format: cell-based, human; conditions: read-out: IC50 SKOV3
In short: as §1

[1] = A2780 human ovarian cancer cell line, 48 h, MTT
[2] = Hela human cervical cancer cell line, MTT
[3] = MDA-MB-231 human breast cancer cell line, 48 h, MTT
[4] = SK-OV-3, SKOV-3 human ovarian cancer cell line, 48 h, MTT

| Structure (SMILES) | IC50 (A2780; Homo sapiens, A2780, 48 h) [nM] | IC50 (Hela; Homo sapiens, HeLa) [nM] | IC50 (MDA-MB-231; Homo sapiens, MDA-MB-231, 48 h) [nM] | IC50 (SKOV3; Homo sapiens, SK-OV-3, 48 h) [nM] | melting point [°C] | IC50 (A2780; [1]) [nM] | IC50 (Hela; [2]) [nM] | IC50 (MDA-MB-231; [3]) [nM] | IC50 (SKOV3; [4]) [nM] |
| --- | --- | --- | --- | --- | --- | --- | --- | --- | --- |
| C=C1C(=O)N(c2cc(OC)c(OC)c(OC)c2)[C@H]1c1ccc(OC)c(OC(=O)C2CC2)c1 [Compound 23, (S)-2-methoxy-5-(3-methylene-4-oxo-1-(3,4,5-trimethoxyphenyl)azetidin-2-yl)phenyl cyclopropanecarboxylate] | 129 | 142 | 207 | 108 | 68 to 69 |  |  |  |  |
| C=CC(=O)Oc1cc([C@H]2C(=C)C(=O)N2c2cc(OC)c(OC)c(OC)c2)ccc1OC [Compound 24, (S)-2-methoxy-5-(3-methylene-4-oxo-1-(3,4,5-trimethoxyphenyl)azetidin-2-yl)phenyl acrylate] |  |  |  |  | 109 to 110 | 328 | 490 | 565 | 522 |
| C=C1C(=O)N(c2cc(OC)c(OC)c(OC)c2)[C@H]1c1ccc(OC)c(OC(=O)N2CCOCC2)c1 [Compound 25, (S)-2-methoxy-5-(3-methylene-4-oxo-1-(3,4,5-trimethoxyphenyl)azetidin-2-yl)phenyl morpholine-4-carboxylate] |  |  |  |  | 82 to 83 | > 10000 | > 10000 | > 10000 | > 10000 |
| C=C1C(=O)N(c2cc(OC)c(OC)c(OC)c2)[C@H]1c1ccc(OC)c(OS(N)(=O)=O)c1 [Compound 26, (S)-2-methoxy-5-(3-methylene-4-oxo-1-(3,4,5-trimethoxyphenyl)azetidin-2-yl)phenyl sulfamate] |  |  |  |  | 199 to 200 | 133 | 224 | 240 | 177 |
| C=C1C(=O)N(c2cc(OC)c(OC)c(OC)c2)[C@H]1c1ccc(OC)c(OS(=O)(=O)CCN2C(=O)c3ccccc3C2=O)c1 [Compound 28, (S)-2-methoxy-5-(3-methylene-4-oxo-1-(3,4,5-trimethoxyphenyl)azetidin-2-yl)phenyl 2-(1,3-dioxoisoindolin-2-yl)ethanesulfonate] |  |  |  |  | 69 to 70 | 16800 | > 20000 | > 20000 | 13300 |
| C=C1C(=O)N(c2cc(OC)c(OC)c(OC)c2)[C@H]1c1ccc(OC)c(OS(=O)(=O)N2CCOCC2)c1 [Compound 29, (S)-2-methoxy-5-(3-methylene-4-oxo-1-(3,4,5-trimethoxyphenyl)azetidin-2-yl)phenyl morpholine-4-sulfonate] |  |  |  |  | 134 to 135 | 12900 | 19300 | > 20000 | 15600 |
| C=C1C(=O)N(c2cc(OC)c(OC)c(OC)c2)[C@H]1c1ccc(OC)c(OS(=O)(=O)CCCC)c1 [Compound 31, (S)-2-methoxy-5-(3-methylene-4-oxo-1-(3,4,5-trimethoxyphenyl)azetidin-2-yl)phenyl butane-1-sulfonate] |  |  |  |  | 99 to 100 | 5320 | 14000 | 7290 | 10200 |
| C=C1C(=O)N(c2cc(OC)c(OC)c(OC)c2)[C@H]1c1ccc(OC)c(OC(=O)CNC(=O)OC(C)(C)C)c1 [Compound 34, (S)-2-methoxy-5-(3-methylene-4-oxo-1-(3,4,5-trimethoxyphenyl)azetidin-2-yl)phenyl 2-((tert-butoxycarbonyl)amino)acetate] |  |  |  |  | 88 to 89 | 240 | 62 | 335 | 264 |
| C=C1C(=O)N(c2cc(OC)c(OC)c(OC)c2)[C@H]1c1ccc(OC)c(Cl)c1 [Compound 39, (S)-4-(3-chloro-4-methoxyphenyl)-3-methylene-1-(3,4,5-trimethoxyphenyl)azetidin-2-one] |  |  |  |  | 119 to 120 | 316 | 371 | 512 | 341 |
| C=C1C(=O)N(c2cc(OC)c(OC)c(OC)c2)[C@H]1c1ccc(OC)c(C(=O)OC)c1 [Compound 40, (5)-methyl 2-methoxy-5-(3-methylene-4-oxo-1-(3,4,5-trimethoxyphenyl)azetidin-2-yl)benzoate] |  |  |  |  | 112 to 113 | 281 | 942 | 479 | 539 |
| C=CC(=O)Nc1cc([C@H]2C(=C)C(=O)N2c2cc(OC)c(OC)c(OC)c2)ccc1OC [Compound 42, (S)—N-(2-methoxy-5-(3-methylene-4-oxo-1-(3,4,5-trimethoxyphenyl)azetidin-2-yl)phenyl)acrylamide] |  |  |  |  | 143 to 144 | 65 | 125 | 34 | 63 |
| C=C1C(=O)N(c2cc(OC)c(OC)c(OC)c2)[C@H]1c1ccc(OC)c(NC(=O)c2ccc([N+](=O)[O-])cc2)c1 [Compound 43, (S)—N-(2-methoxy-5-(3-methylene-4-oxo-1-(3,4,5-trimethoxyphenyl)azetidin-2-yl)phenyl)-4-nitrobenzamide] |  |  |  |  | 234 to 235 | 931 | 1580 | 2000 | 1420 |
| C=C1C(=O)N(c2cc(OC)c(OC)c(OC)c2)[C@H]1c1ccc(OC)c(NS(N)(=O)=O)c1 [Compound 44, (S)—N-(2-methoxy-5-(3-methylene-4-oxo-1-(3,4,5-trimethoxyphenyl)azetidin-2-yl)phenyl)sulfamoylamide] |  |  |  |  | 101 to 102 | 354 | 456 | 841 | 833 |
| C=C1C(=O)N(c2cc(OC)c(OC)c(OC)c2)[C@H]1c1ccc(OC)c(NC(=O)C2CC2)c1 [Compound 45, (S)—N-(2-methoxy-5-(3-methylene-4-oxo-1-(3,4,5-trimethoxyphenyl)azetidin-2-yl)phenyl)cyclopropanecarboxamide] |  |  |  |  | 181 to 182 | 148 | 321 | 197 | 224 |
| C=C1C(=O)N(c2cc(OC)c(OC)c(OC)c2)[C@H]1c1ccc(OC)c(OC(C)=O)c1 [Compound 46, (S)-2-methoxy-5-(3-methylene-4-oxo-1-(3,4,5-trimethoxyphenyl)azetidin-2-yl)phenyl acetate] |  |  |  |  | 122 to 123 | 81 | 116 | 133 | 104 |
| C=C1C(=O)N(c2cc(OC)c(OC)c(OC)c2)[C@H]1c1ccc(OC)c(OCc2ccccc2)c1 [Compound 47, (S)-4-(3-(benzyloxy)-4-methoxyphenyl)-3-methylene-1-(3,4,5-trimethoxyphenyl)azetidin-2-one] |  |  |  |  | 133 to 134 | > 20000 | > 20000 | > 20000 | > 20000 |
| C=C1C(=O)N(c2ccc(OC)c(OC)c2)[C@H]1c1ccc(OC)c(O)c1 [Compound 48, (S)-1-(3,4-dimethoxyphenyl)-4-(3-hydroxy-4-methoxyphenyl)-3-methyleneazetidin-2-one] |  |  |  |  | 74 to 75 | 4570 | > 20000 | 6100 | 14800 |
| C=C1C(=O)N(c2cccc(OC)c2)[C@H]1c1ccc(OC)c(O)c1 [Compound 51, (S)-1-(3-methoxyphenyl)-4-(3-hydroxy-4-methoxyphenyl)-3-methyleneazetidin-2-one] |  |  |  |  | 104 to 105 | 677 | 2170 | 1370 | 1390 |
| C=C1C(=O)N(c2ccc(OC)cc2)[C@H]1c1ccc(OC)c(O)c1 [Compound 52, (S)-1-(4-methoxyphenyl)-4-(3-hydroxy-4-methoxyphenyl)-3-methyleneazetidin-2-one] |  |  |  |  | 180 to 181 | > 20000 | > 20000 | > 20000 | > 20000 |
| COc1ccc([C@H]2/C(=C/C[Si](C)(C)C)C(=O)N2c2cc(OC)c(OC)c(OC)c2)cc1O [Compound 53, (S,Z)-4-(3-hydroxy-4-methoxyphenyl)-1-(3,4,5-trimethoxyphenyl)-3-(2-(trimethylsilyl)ethylidene)azetidin-2-one] |  |  |  |  | 67 to 69 | > 10000 | > 10000 | > 10000 | > 10000 |

From patent US20200392150A1, “Diaryl-B-Lactam Compound and Preparation Method and Pharmaceutical Use Thereof” (Fudan University, priority 2016, published 2020)
